The record followed here is patent US20220306647A1, “NOVEL INDOLE-2-CARBOXAMIDES ACTIVE AGAINST THE HEPATITUS B VIRUS (HBV)” (AICURIS GMBH & CO. KG, priority 2019, published 2022).

Where only a bound is given, the exact number is not on record here.

T1 sequence (P03146 whole entry, the tested form may be a part): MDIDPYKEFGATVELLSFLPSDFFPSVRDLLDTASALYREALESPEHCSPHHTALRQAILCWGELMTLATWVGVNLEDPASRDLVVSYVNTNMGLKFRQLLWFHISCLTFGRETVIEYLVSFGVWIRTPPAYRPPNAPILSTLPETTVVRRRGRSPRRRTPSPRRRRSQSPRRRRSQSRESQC

The test addresses T1, HBV core protein (C-terminal truncated core protein, 149 amino acids of the N-terminal assembly domain, BODIPY-FL labelled) (UniProt P03146).
T1 construct: fused on or other part: A single cysteine added after residue 149, at position 150; It carries the BODIPY-FL maleimide label
Briefly: Biochemical capsid assembly assay (fluorescence quenching). Particulars: assembly started with NaCl, fluorescence read after 6 min, read-out: Assembly activity. The protocol: The screening for assembly effector activity was done based on a fluorescence quenching assay published by Zlotnick et al. (2007). The C-terminal truncated core protein containing 149 amino acids of the N-terminal assembly domain fused to a unique cysteine residue at position 150 and was expressed in E. coli using the pET expression system (Merck Chemicals, Darmstadt). Purification of core dimer protein was performed using a sequence of size exclusion chromatography steps. In brief, the cell pellet from 1 L BL21 (DE3) Rosetta2 culture expressing the coding sequence of core protein cloned NdeI/XhoI into expression plasmid pET21b was treated for 1 h on ice with a native lysis buffer (Qproteome Bacterial Protein Prep Kit; Qiagen, Hilden). After a centrifugation step the supernatant was precipitated during 2 h stirring on ice with 0.23 g/ml of solid ammonium sulfate. Following further centrifugation the resulting pellet was resolved in buffer A (100 mM Tris, pH 7.5; 100 mM NaCl; 2 mM DTT) and was subsequently loaded onto a buffer A equilibrated CaptoCore 700 column (GE HealthCare, Frankfurt). The column flow through containing the assembled HBV capsid was dialyzed against buffer N (50 mM NaHCO3 pH 9.6; 5 mM DTT) before urea was added to a final concentration of 3M to dissociate the capsid into core dimers for 1.5 h on ice. The protein solution was then loaded onto a 1L Sephacryl S300 column. After elution with buffer N core dimer containing fractions were identified by SDS-PAGE and subsequently pooled and dialyzed against 50 mM HEPES pH 7.5; 5 mM DTT. To improve the assembly capacity of the purified core dimers a second round of assembly and disassembly starting with the addition of 5 M NaCl and including the size exclusion chromatography steps described above was performed. From the last chromatography step core dimer containing fractions were pooled and stored in aliquots at concentrations between 1.5 to 2.0 mg/ml at −80° C.
Immediately before labelling the core protein was reduced by adding freshly prepared DTT in a final concentration of 20 mM. After 40 min incubation on ice storage buffer and DTT was removed using a Sephadex G-25 column (GE HealthCare, Frankfurt) and 50 mM HEPES, pH 7.5. For labelling 1.6 mg/ml core protein was incubated at 4° C. and darkness overnight with BODIPY-FL maleimide (Invitrogen, Karlsruhe) in a final concentration of 1 mM. After labelling the free dye was removed by an additional desalting step using a Sephadex G-25 column. Labelled core dimers were stored in aliquots at 4° C. In the dimeric state the fluorescence signal of the labelled core protein is high and is quenched during the assembly of the core dimers to high molecular capsid structures. The screening assay was performed in black 384 well microtiter plates in a total assay volume of 10 μl using 50 mM HEPES pH 7.5 and 1.0 to 2.0 μM labelled core protein. Each screening compound was added in 8 different concentrations using a 0.5 log-unit serial dilution starting at a final concentration of 100 μM, 31.6 μM or 10 μM, In any case the DMSO concentration over the entire microtiter plate was 0.5%. The assembly reaction was started by the injection of NaCl to a final concentration of […] which induces the assembly process to approximately 25% of the maximal quenched signal. 6 min after starting the reaction the fluorescence signal was measured using a Clariostar plate reader (BMG Labtech, Ortenberg) with an excitation of 477 nm and an emission of 525 nm. As 100% and 0% assembly control HEPES buffer containing 2.5 M and 0 M NaCl was used. Experiments were performed thrice in triplicates. EC50 values were calculated by non-linear regression analysis using the Graph Pad Prism 6 software (GraphPad Software, La Jolla, USA).
As to `O=C(O)c1cnc(C2(NC(=O)c3cnn4c3CN(C(=O)c3cc5ccccc5[nH]3)CC4)CC2)nc1` [Example 20, 2-{1-[5-(1H-indole-2-carbonyl)-4H,5H,6H,7H-pyrazolo[1,5-a]pyrazine-3-amido]cyclopropyl}pyrimidine-5-carboxylic acid], the IC50 was under 5 µM. Then `O=C(c1cc2ccccc2[nH]1)N1CCc2nn3c(c2C1)C(=O)N(CC(F)F)C1(CC3)CC1` [Example 147, 13′-(2,2-difluoroethyl)-4′-(1H-indole-2-carbonyl)-4′,8′,9′,13′-tetraazaspiro[cyclopropane-1,12′-tricyclo[7.5.0.0^2,7]tetradecane]-1′,7′-dien-14′-one], with under 5 µM. The value for `O=C(NC1(COC(F)F)CC1)c1onc2c1CN(C(=O)c1cc3c(Cl)cccc3[nH]1)CC2` [Example 133, 5-(4-chloro-1H-indole-2-carbonyl)-N-{1-[(difluoromethoxy)methyl]cyclopropyl}-4H,5H,6H,7H-[1,2]oxazolo[4,3-c]pyridine-3-carboxamide] was under 5 µM.

Turning to `CN(C(=O)c1[nH]nc2c1CN(C(=O)c1cc3ccccc3[nH]1)CC2)C1(c2ccc(C(=O)O)cc2)CC1` [Example 44, 4-{1-[N-methyl-5-(1H-indole-2-carbonyl)-2H,4H,5H,6H,7H-pyrazolo[4,3-c]pyridine-3-amido]cyclopropyl}benzoic acid], the IC50 was under 5 µM. The value for `COCCN1C(=O)c2c3c(nn2CCC12CC2)CCN(C(=O)c1cc2ccccc2[nH]1)C3` [Example 123, 4′-(1H-indole-2-carbonyl)-13′-(2-methoxyethyl)-4′, 8′,9′,13′-tetraazaspiro[cyclopropane-1,12′-tricyclo[7.5.0.0^2,7]tetradecane]-1′,7′-dien-14′-one] was under 5 µM; that for `O=C(c1cc2ccccc2[nH]1)N1CCc2noc(C(=O)N3CCC(O)CC34CC4)c2C1` (stereo not drawn) [Example 102, 4-[5-(1H-indole-2-carbonyl)-4H,5H,6H,7H-[1,2]oxazolo[4,3-c]pyridine-3-carbonyl]-4-azaspiro[2.5]octan-7-ol] was under 5 µM. Then `CN(C(=O)c1cnn2c1CN(C(=O)c1cc3ccccc3[nH]1)CC2)C1(c2nccc(C(=O)O)n2)CC1` [Example 36, 2-{1-[N-methyl-5-(1H-indole-2-carbonyl)-4H,5H,6H,7H-pyrazolo[1,5-a]pyrazine-3-amido]cyclopropyl}pyrimidine-4-carboxylic acid], with under 5 µM; and `CN1CCN(CCN2C(=O)c3c4c(nn3CCC23CC3)CCN(C(=O)c2cc3ccccc3[nH]2)C4)CC1` [Example 125, 4′-(1H-indole-2-carbonyl)-13′-[2-(4-methylpiperazin-1-yl)ethyl]-4′,8′,9′,13′-tetraazaspiro[cyclopropane-1,12′-tricyclo[7.5.0.0^2,7]tetradecane]-1′,7′-dien-14′-one], with under 5 µM. The value for `O=C(c1cc2cc(F)c(Cl)cc2[nH]1)N1CCc2nn3c(c2C1)C(=O)N(CCO)C1(CC3)CC1` [Example 122, 4′-(6-chloro-5-fluoro-1H-indole-2-carbonyl)-13′-(2-hydroxyethyl)-4′,8′,9′,13′-tetraazaspiro[cyclopropane-1,12′-tricyclo[7.5.0.0^2,7]tetradecane]-1′,7′-dien-14′-one] was under 5 µM. As for `O=C(c1cc2ccccc2[nH]1)N1CCc2nn3c(c2C1)C(=O)N(CCOC(F)(F)F)C1(CC3)CC1` [Example 146, 4′-(1H-indole-2-carbonyl)-13′-[2-(trifluoromethoxy)ethyl]-4′,8′,9′,13′-tetraazaspiro[cyclopropane-1,12′-tricyclo[7.5.0.0^2,7]tetradecane]-1′,7′-dien-14′-one], the IC50 was under 5 µM. For `Cc1cc(F)cc2[nH]c(C(=O)N3CCc4n[nH]c(C(=O)N(C)C5(c6ccc(C(=O)O)cc6)CC5)c4C3)cc12` [Example 67, 4-{1-[N-methyl-5-(6-fluoro-4-methyl-1H-indole-2-carbonyl)-2H,4H,5H,6H,7H-pyrazolo[4,3-c]pyridine-3-amido]cyclopropyl}benzoic acid], the IC50 was under 5 µM. As for `C[C@@H](NC(=O)c1noc2c1CN(C(=O)c1cc3cc(F)c(F)cc3[nH]1)CC2)C(F)(F)F` [Example 111, 5-(5,6-difluoro-1H-indole-2-carbonyl)-N-[(2R)-1,1,1-trifluoropropan-2-yl]-4H,5H,6H,7H-[1,2]oxazolo[4,5-c]pyridine-3-carboxamide], the IC50 is under 5 µM. Then `Cc1cc(F)cc2[nH]c(C(=O)N3CCc4n[nH]c(C(=O)N(C)C5(c6ncc(C(=O)O)cn6)CC5)c4C3)cc12` [Example 73, 2-{1-[N-methyl-5-(6-fluoro-4-methyl-1H-indole-2-carbonyl)-2H,4H,5H,6H,7H-pyrazolo[4,3-c]pyridine-3-amido]cyclopropyl}pyrimidine-5-carboxylic acid], with under 5 µM; and `Cc1c(F)ccc2[nH]c(C(=O)N3CCn4ncc(C(=O)N(C)C5(c6ncc(C(=O)O)cn6)CC5)c4C3)cc12` [Example 59, 2-{1-[N-methyl-5-(5-fluoro-4-methyl-1H-indole-2-carbonyl)-4H,5H,6H,7H-pyrazolo[1,5-a]pyrazine-3-amido]cyclopropyl}pyrimidine-5-carboxylic acid], with under 5 µM.

Regarding `O=C(c1cc2cc(F)c(F)cc2[nH]1)N1CCc2nn3c(c2C1)C(=O)N(CCO)C1(CC3)CC1` [Example 121, 4′-(5,6-difluoro-1H-indole-2-carbonyl)-13′-(2-hydroxyethyl)-4′, 8′,9′,13′-tetraazaspiro[cyclopropane-1,12′-tricyclo[7.5.0.0^2,7]tetradecane]-1′,7′-dien-14′-one], the IC50 is under 5 µM. As for `CN(C)CCN1C(=O)c2c3c(nn2CCC12CC2)CCN(C(=O)c1cc2ccccc2[nH]1)C3` [Example 124, 13′-[2-(dimethylamino)ethyl]-4′-(1H-indole-2-carbonyl)-4′,8′,9′,13′-tetraazaspiro[cyclopropane-1,12′-tricyclo[7.5.0.0^2,7]tetradecane]-1′,7′-dien-14′-one], the IC50 fell in the range of 5 to 10 µM. As to `Cc1c(F)ccc2[nH]c(C(=O)N3CCc4n[nH]c(C(=O)N(C)C5(c6ccc(C(=O)O)cc6)CC5)c4C3)cc12` [Example 66, 4-{1-[N-methyl-5-(5-fluoro-4-methyl-1H-indole-2-carbonyl)-2H,4H,5H,6H,7H-pyrazolo[4,3-c]pyridine-3-amido]cyclopropyl}benzoic acid], the IC50 is under 5 µM.

With `O=C(O)c1ccc(C2(NC(=O)c3cnn4c3CN(C(=O)c3cc5ccccc5[nH]3)CC4)CC2)nc1` [Example 19, 6-{1-[5-(1H-indole-2-carbonyl)-4H,5H,6H,7H-pyrazolo[1,5-a]pyrazine-3-amido]cyclopropyl}pyridine-3-carboxylic acid], the IC50 is under 100 µM. The value for `CC1CCn2nc3c(c2C(=O)N1C)CN(C(=O)c1cc2ccccc2[nH]1)CC3` (stereo not drawn) [Example 145, 4-(1H-indole-2-carbonyl)-12,13-dimethyl-4,8,9,13-tetraazatricyclo[7.5.0.0^2,7]tetradeca-1,7-dien-14-one] was under 5 µM; that for `O=C(NC1(COC(F)F)CC1)c1onc2c1CN(C(=O)c1cc3cc(F)c(F)cc3[nH]1)CC2` [Example 141, 5-(5,6-difluoro-1H-indole-2-carbonyl)-N-{1-[(difluoromethoxy)methyl]cyclopropyl}-4H,5H,6H,7H-[1,2]oxazolo[4,3-c]pyridine-3-carboxamide] was under 5 µM. Then `O=C(c1cc2c(F)c(F)ccc2[nH]1)N1CCc2nn3c(c2C1)C(=O)N(CCO)C1(CC3)CC1` [Example 120, 4′-(4,5-difluoro-1H-indole-2-carbonyl)-13′-(2-hydroxyethyl)-4′, 8′,9′,13′-tetraazaspiro[cyclopropane-1,12′-tricyclo[7.5.0.0^2,7]tetradecane]-1′,7′-dien-14′-one], with under 5 µM.
